The text below walks through data of patent US12617797B2, “Substituted pyrazolo [1,5-a]pyrimidines having multimodal activity against pain” (ESTEVE PHARMACEUTICALS, S.A., priority 2020, dated 2026).

Bounds are passed on as bounds.

Test [1] concerns the target Human α2δ-1 subunit of Cav2.2 calcium channel (Homo sapiens, UniProt P54289). Briefly: Human α2δ-1 subunit of Cav2.2 calcium channel assay ([3H]-gabapentin binding). The conditions noted are these: binding to the α2δ-1 subunit of voltage-gated calcium channels expressed as Ki; + also covers inhibition between 1% and 50%. The method, then: Biological Activity Pharmacological Study Human α2δ-1 Subunit of Cav2.2 Calcium Channel Assay
Human α2δ-1 enriched membranes (2.5 μg) were incubated with 15 nM of radiolabeled [^3H]-Gabapentin in assay buffer containing Hepes-KOH 10 mM, pH 7.4. NSB (non specific binding) was measured by adding 10 μM pregabalin. The binding of the test compound was measured at either one concentration (% inhibition at 1 or 10 μM) or five different concentrations to determine affinity values (Ki). After 60 min incubation at 27° C., binding reaction was terminated by filtering through Multiscreen GF/C (Millipore) presoaked in 0.5% polyethyleneimine in Vacuum Manifold Station, followed by 3 washes with ice-cold filtration buffer containing 50 mM Tris-HCl, pH 7.4. Filter plates were dried at 60° C. for 1 h and 30 μL of scintillation cocktail were added to each well before radioactivity reading. Readings were performed in a Trilux 1450 Microbeta radioactive counter (Perkin Elmer).

The next test deals with T1, Human σ1 receptor (Homo sapiens, UniProt Q99720).
T1 construct: expressed in transfected cells; host or cells: HEK-293
Briefly: Human σ1 receptor radioligand assay ([3H](+)-pentazocine binding, transfected HEK-293 membranes). The conditions noted are these: binding to σ1 receptor expressed as Ki; + also covers inhibition between 1% and 50%; read-out: σ-1 binding. The method, then: Human σ1 Receptor Radioligand Assay
Transfected HEK-293 membranes (7 μg) were incubated with 5 nM of [^3H](+)-pentazocine in assay buffer containing Tris-HCl 50 mM at pH 8. NBS (non-specific binding) was measured by adding 10 μM haloperidol. The binding of the test compound was measured at either one concentration (% inhibition at 1 or 10 μM) or five different concentrations to determine affinity values (Ki). Plates were incubated at 37° C. for 120 minutes. After the incubation period, the reaction mix was then transferred to MultiScreen HTS, FC plates (Millipore), filtered and plates were washed 3 times with ice-cold 10 mM Tris-HCL (pH7.4). Filters were dried and counted at approximately 40% efficiency in a MicroBeta scintillation counter (Perkin-Elmer) using EcoScint liquid scintillation cocktail.

T1 sequence (Q99720 whole entry): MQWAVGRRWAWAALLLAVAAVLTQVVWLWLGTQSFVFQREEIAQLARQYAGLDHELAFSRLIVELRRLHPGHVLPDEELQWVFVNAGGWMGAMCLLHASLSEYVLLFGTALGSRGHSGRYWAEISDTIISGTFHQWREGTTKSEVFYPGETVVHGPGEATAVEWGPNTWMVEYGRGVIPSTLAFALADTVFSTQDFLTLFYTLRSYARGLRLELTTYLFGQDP
Sequence of Human α2δ-1 subunit of Cav2.2 calcium channel (P54289 25-1103): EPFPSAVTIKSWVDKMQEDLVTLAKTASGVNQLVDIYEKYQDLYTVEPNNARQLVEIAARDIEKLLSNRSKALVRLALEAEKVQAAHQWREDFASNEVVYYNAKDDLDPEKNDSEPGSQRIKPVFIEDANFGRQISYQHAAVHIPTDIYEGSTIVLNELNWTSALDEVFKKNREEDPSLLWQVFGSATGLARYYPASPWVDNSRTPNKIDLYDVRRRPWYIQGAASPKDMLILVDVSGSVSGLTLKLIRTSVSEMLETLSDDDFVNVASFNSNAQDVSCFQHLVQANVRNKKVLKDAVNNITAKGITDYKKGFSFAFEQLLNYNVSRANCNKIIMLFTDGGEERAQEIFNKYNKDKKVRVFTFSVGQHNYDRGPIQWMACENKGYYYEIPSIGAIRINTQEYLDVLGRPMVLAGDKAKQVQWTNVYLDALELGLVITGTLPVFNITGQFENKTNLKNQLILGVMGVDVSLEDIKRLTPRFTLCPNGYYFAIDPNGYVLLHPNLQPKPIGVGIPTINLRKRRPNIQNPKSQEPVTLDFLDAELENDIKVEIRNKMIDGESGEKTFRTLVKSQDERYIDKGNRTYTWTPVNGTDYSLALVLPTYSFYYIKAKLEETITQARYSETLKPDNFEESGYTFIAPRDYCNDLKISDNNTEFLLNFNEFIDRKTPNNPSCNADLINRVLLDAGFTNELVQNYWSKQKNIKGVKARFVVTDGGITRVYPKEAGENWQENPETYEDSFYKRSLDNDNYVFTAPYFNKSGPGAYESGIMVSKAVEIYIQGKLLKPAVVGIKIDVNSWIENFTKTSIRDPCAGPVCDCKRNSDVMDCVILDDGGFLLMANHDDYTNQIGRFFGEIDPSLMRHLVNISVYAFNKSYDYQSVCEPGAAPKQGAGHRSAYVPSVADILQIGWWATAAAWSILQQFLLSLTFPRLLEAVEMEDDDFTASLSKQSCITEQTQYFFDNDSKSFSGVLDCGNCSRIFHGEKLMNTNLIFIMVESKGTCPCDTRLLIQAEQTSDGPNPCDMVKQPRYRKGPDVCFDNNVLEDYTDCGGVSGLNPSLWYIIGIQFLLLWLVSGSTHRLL

Consider `COc1ccc(-c2cc3nccc(C4CCCN(Cc5ccccc5)C4)n3n2)cn1` (stereo not drawn) [Example 28, 7-(1-Benzylpiperidin-3-yl)-2-(6-methoxypyridin-3-yl)pyrazolo[1,5-a]pyrimidine], for which the Ki in test [1] was 0.5 to 5 µM; on Human σ1 receptor, above 1 µM.

As to `COc1ccccc1-c1cc2nccc(C3CCCN(Cc4ccccc4)C3)n2n1` (stereo not drawn) [Example 29, 7-(1-Benzylpiperidin-3-yl)-2-(2-methoxyphenyl)pyrazolo[1,5-a]pyrimidine], the Ki in test [1] is 0.5 to 5 µM; at Human σ1 receptor, above 1 µM.

Regarding `COc1cccc(-c2cc3nccc(C4CCCN(Cc5ccccc5)C4)n3n2)n1` (stereo not drawn) [Example 30, 7-(1-Benzylpiperidin-3-yl)-2-(6-methoxypyridin-2-yl)pyrazolo[1,5-a]pyrimidine], the Ki in test [1] is above 5 µM; at Human σ1 receptor, above 1 µM.

As for `COc1cncc(-c2cc3nccc(C4CCCN(Cc5ccccc5)C4)n3n2)c1` (stereo not drawn) [Example 31, 7-(1-Benzylpiperidin-3-yl)-2-(5-methoxypyridin-3-yl)pyrazolo[1,5-a]pyrimidine], the Ki in test [1] is 0.5 to 5 µM; at Human σ1 receptor, above 1 µM.

As for `COc1cc(-c2cc3nccc(C4CCCN(Cc5ccccc5)C4)n3n2)ccn1` (stereo not drawn) [Example 32, 7-(1-Benzylpiperidin-3-yl)-2-(2-methoxypyridin-4-yl)pyrazolo[1,5-a]pyrimidine], the Ki was above 5 µM in test [1] and above 1 µM at Human σ1 receptor.

Consider `COc1cnccc1-c1cc2nccc(C3CCCN(Cc4ccccc4)C3)n2n1` (stereo not drawn) [Example 33, 7-(1-Benzylpiperidin-3-yl)-2-(3-methoxypyridin-4-yl)pyrazolo[1,5-a]pyrimidine], for which the values for the Ki (in test [1]; on Human σ1 receptor) were 0.5 to 5 µM and above 1 µM, respectively.

Regarding `COc1ccncc1-c1cc2nccc(C3CCCN(Cc4ccccc4)C3)n2n1` (stereo not drawn) [Example 34, 7-(1-Benzylpiperidin-3-yl)-2-(4-methoxypyridin-3-yl)pyrazolo[1,5-a]pyrimidine], the Ki in test [1] was 0.5 to 5 µM; at Human σ1 receptor it was above 1 µM.

Regarding `c1ccc(CN2CCCC(c3ccnc4c(-c5ccccc5)cnn34)C2)cc1` (stereo not drawn) [Example 35, 7-(1-Benzylpiperidin-3-yl)-3-phenylpyrazolo[1,5-a]pyrimidine], the Ki in test [1] is above 5 µM; on Human σ1 receptor, 0.5 to 1 µM.

With `c1ccc(CN2CCCC(c3ccnc4c(-c5ccncc5)cnn34)C2)cc1` (stereo not drawn) [Example 36, 7-(1-Benzylpiperidin-3-yl)-3-(pyridin-4-yl)pyrazolo[1,5-a]pyrimidine], the Ki in test [1] lay within 0.5 to 5 µM; at Human σ1 receptor, 0.5 to 1 µM.

As for `c1ccc(CN2CCCC(c3ccnc4c(-c5cccnc5)cnn34)C2)cc1` (stereo not drawn) [Example 37, 7-(1-Benzylpiperidin-3-yl)-3-(pyridin-3-yl)pyrazolo[1,5-a]pyrimidine], the Ki is 0.5 to 5 µM in test [1] and above 1 µM at Human σ1 receptor.

As to `COc1cc(-c2cnn3c(C4CCCN(Cc5ccccc5)C4)ccnc23)ccn1` (stereo not drawn) [Example 38, 7-(1-Benzylpiperidin-3-yl)-3-(2-methoxypyridin-4-yl)pyrazolo[1,5-a]pyrimidine], the Ki in test [1] is 0.5 to 5 µM; at Human σ1 receptor it was above 1 µM.

On to `CCOc1ccc(-c2cnn3c(C4CCCN(Cc5ccccc5)C4)ccnc23)cc1` (stereo not drawn) [Example 39, 7-(1-Benzylpiperidin-3-yl)-3-(4-ethoxyphenyl)pyrazolo[1,5-a]pyrimidine], for which the figures for the Ki (in test [1]; on Human σ1 receptor) were above 5 µM and above 1 µM, respectively.

For the molecule `COc1ncccc1-c1cnn2c(C3CCCN(Cc4ccccc4)C3)ccnc12` (stereo not drawn) [Example 40, 7-(1-Benzylpiperidin-3-yl)-3-(2-methoxypyridin-3-yl)pyrazolo[1,5-a]pyrimidine], the Ki in test [1] is 0.5 to 5 µM; at Human σ1 receptor, above 1 µM.

Regarding `Cc1cnc2c(-c3ccncc3)cnn2c1C1CCCN(Cc2ccccc2)C1` (stereo not drawn) [Example 41, 7-(1-Benzylpiperidin-3-yl)-6-methyl-3-(pyridin-4-yl)pyrazolo[1,5-a]pyrimidine], the values for the Ki (in test [1]; on Human σ1 receptor) were 0.5 to 5 µM and above 1 µM, respectively.

For the molecule `Cc1nn2c(C3CCCN(Cc4ccccc4)C3)ccnc2c1-c1ccncc1` (stereo not drawn) [Example 42, 7-(1-Benzylpiperidin-3-yl)-2-methyl-3-(pyridin-4-yl)pyrazolo[1,5-a]pyrimidine], the Ki in test [1] was 0.5 to 5 µM; on Human σ1 receptor, above 1 µM.

Consider `COc1ncccc1-c1c(C)nn2c(C3CCCN(Cc4ccccc4)C3)ccnc12` (stereo not drawn) [Example 43, 7-(1-Benzylpiperidin-3-yl)-3-(2-methoxypyridin-3-yl)-2-methylpyrazolo[1,5-a]pyrimidine], for which the Ki in test [1] was 0.5 to 5 µM; at Human σ1 receptor, above 1 µM.

In the case of `Cc1nn2c(C3CCCN(Cc4ccccc4)C3)ccnc2c1-c1ccccc1` (stereo not drawn) [Example 44, 7-(1-Benzylpiperidin-3-yl)-2-methyl-3-phenylpyrazolo[1,5-a]pyrimidine], the Ki in test [1] was above 5 µM; at Human σ1 receptor, above 1 µM.

With `CCOc1ccc(-c2c(C)nn3c(C4CCCN(Cc5ccccc5)C4)ccnc23)cc1` (stereo not drawn) [Example 45, 7-(1-Benzylpiperidin-3-yl)-3-(4-ethoxyphenyl)-2-methylpyrazolo[1,5-a]pyrimidine], the Ki is above 5 µM in test [1] and 0.5 to 1 µM on Human σ1 receptor.

Turning to `COc1cc(-c2c(C)nn3c(C4CCCN(Cc5ccccc5)C4)ccnc23)ccn1` (stereo not drawn) [Example 46, 7-(1-Benzylpiperidin-3-yl)-3-(2-methoxypyridin-4-yl)-2-methylpyrazolo[1,5-a]pyrimidine], the Ki in test [1] was 0.5 to 5 µM; on Human σ1 receptor, above 1 µM.

As to `Cc1nn2c(C3CCCN(Cc4ccccc4)C3)ccnc2c1-c1ccc(N(C)C)cc1` (stereo not drawn) [Example 47, 4-(7-(1-Benzylpiperidin-3-yl)-2-methylpyrazolo[1,5-a]pyrimidin-3-yl)-N,N-dimethylaniline], the values for the Ki (in test [1]; at Human σ1 receptor) were above 5 µM and above 1 µM, respectively.

For `Cc1nn2c(C3CCCN(Cc4ccccc4)C3)ccnc2c1-c1ccccc1F` (stereo not drawn) [Example 48, 7-(1-Benzylpiperidin-3-yl)-3-(2-fluorophenyl)-2-methylpyrazolo[1,5-a]pyrimidine], the values for the Ki (in test [1]; at Human σ1 receptor) were above 5 µM and above 1 µM, respectively.

For the molecule `Cc1cnccc1-c1c(C)nn2c(C3CCCN(Cc4ccccc4)C3)ccnc12` (stereo not drawn) [Example 49, 7-(1-Benzylpiperidin-3-yl)-2-methyl-3-(3-methylpyridin-4-yl)pyrazolo[1,5-a]pyrimidine], the Ki is above 5 µM in test [1] and above 1 µM at Human σ1 receptor.

For the molecule `Cc1nn2c(C3CCCN(Cc4ccccc4)C3)ccnc2c1-c1ccnc(F)c1` (stereo not drawn) [Example 50, 7-(1-Benzylpiperidin-3-yl)-3-(2-fluoropyridin-4-yl)-2-methylpyrazolo[1,5-a]pyrimidine], the Ki was 0.5 to 5 µM in test [1] and above 1 µM at Human σ1 receptor.

For `Cc1cc(-c2c(C)nn3c(C4CCCN(Cc5ccccc5)C4)ccnc23)ccn1` (stereo not drawn) [Example 51, 7-(1-Benzylpiperidin-3-yl)-2-methyl-3-(2-methylpyridin-4-yl)pyrazolo[1,5-a]pyrimidine], the Ki was 0.5 to 5 µM in test [1] and 0.5 to 1 µM on Human σ1 receptor.

`Cc1nn2c(C3CCCN(Cc4ccccc4)C3)ccnc2c1-c1ccncc1F` (stereo not drawn) [Example 52, 7-(1-Benzylpiperidin-3-yl)-3-(3-fluoropyridin-4-yl)-2-methylpyrazolo[1,5-a]pyrimidine]: the figures for the Ki (in test [1]; at Human σ1 receptor) were 0.5 to 5 µM and above 1 µM, respectively.

As for `Cc1nn2c(C3CCCN(Cc4ccccc4)C3)ccnc2c1-c1ccnc(C(F)(F)F)c1` (stereo not drawn) [Example 53, 7-(1-Benzylpiperidin-3-yl)-2-methyl-3-(2-(trifluoromethyl)pyridin-4-yl)pyrazolo[1,5-a]pyrimidine], the Ki in test [1] was 0.5 to 5 µM; on Human σ1 receptor, above 1 µM.

In the case of `CCc1cc(-c2c(C)nn3c(C4CCCN(Cc5ccccc5)C4)ccnc23)ccn1` (stereo not drawn) [Example 54, 7-(1-Benzylpiperidin-3-yl)-3-(2-ethylpyridin-4-yl)-2-methylpyrazolo[1,5-a]pyrimidine], the results for the Ki (in test [1]; on Human σ1 receptor) were 0.5 to 5 µM and above 1 µM, respectively.

On to `Cc1nc(-c2cccc(-c3c(C)nn4c(C5CCCN(Cc6ccccc6)C5)ccnc34)c2)no1` (stereo not drawn) [Example 55, 3-(3-(7-(1-Benzylpiperidin-3-yl)-2-methylpyrazolo[1,5-a]pyrimidin-3-yl)phenyl)-5-methyl-1,2,4-oxadiazole], for which the Ki in test [1] was 0.5 to 5 µM; on Human σ1 receptor it was above 1 µM.

As to `Cc1nnc(-c2cccc(-c3c(C)nn4c(C5CCCN(Cc6ccccc6)C5)ccnc34)c2)o1` (stereo not drawn) [Example 56, 2-(3-(7-(1-Benzylpiperidin-3-yl)-2-methylpyrazolo[1,5-a]pyrimidin-3-yl)phenyl)-5-methyl-1,3,4-oxadiazole], the Ki in test [1] was 0.5 to 5 µM; on Human σ1 receptor, above 1 µM.

For the molecule `COc1cnccc1-c1c(C)nn2c(C3CCCN(Cc4ccccc4)C3)ccnc12` (stereo not drawn) [Example 57, 7-(1-Benzylpiperidin-3-yl)-3-(3-methoxypyridin-4-yl)-2-methylpyrazolo[1,5-a]pyrimidine], the Ki is 0.5 to 5 µM in test [1] and above 1 µM at Human σ1 receptor.
